{"source": "ChEMBL document CHEMBL4308841", "about": "“Synthesis, in vitro antiproliferative activity, and kinase inhibitory effects of pyrazole-containing diarylureas and diarylamides” (Eur J Med Chem, 2018)", "key": {"[1]": {"system": "CCRF-CEM", "assay": "Growth inhibition of human CCRF-CEM cells assessed as cell growth at 0.1 uM incubated for 48 hrs by sulforhodamine B assay relative to control", "format": "functional", "settings": "read-out: Activity"}, "[2]": {"system": "SNB-75", "assay": "Growth inhibition of human SNB75 cells assessed as cell growth at 0.01 uM incubated for 48 hrs by sulforhodamine B assay relative to control", "format": "functional", "settings": "SNB-75, 48 h, read-out: Activity"}, "[3]": {"system": "RXF 393", "assay": "Growth inhibition of human RXF393 cells assessed as cell growth at 100 uM incubated for 48 hrs by sulforhodamine B assay relative to control", "format": "functional", "settings": "RXF 393, 48 h, read-out: Activity"}, "[4]": {"system": "UACC-257", "assay": "Growth inhibition of human UACC257 cells assessed as cell growth at 0.01 uM incubated for 48 hrs by sulforhodamine B assay relative to control", "format": "functional", "settings": "UACC-257, 48 h, read-out: Activity"}, "[5]": {"system": "COLO 205", "assay": "Growth inhibition of human COLO205 cells assessed as cell growth at 100 uM incubated for 48 hrs by sulforhodamine B assay relative to control", "format": "functional", "settings": "COLO 205, 48 h, read-out: Activity"}, "[6]": {"system": "786-0", "assay": "Growth inhibition of human 786-0 cells assessed as cell growth at 1 uM incubated for 48 hrs by sulforhodamine B assay relative to control", "format": "functional", "settings": "786-0, 48 h, read-out: Activity"}, "[7]": {"system": "HCT-15", "assay": "Growth inhibition of human HCT15 cells assessed as cell growth at 0.01 uM incubated for 48 hrs by sulforhodamine B assay relative to control", "format": "functional", "settings": "HCT-15, 48 h, read-out: Activity"}, "[8]": {"system": "IGROV-1", "assay": "Growth inhibition of human IGROV1 cells incubated for 48 hrs by sulforhodamine B assay", "format": "functional, cell-based", "settings": "IGROV-1, 48 h"}, "[9]": {"system": "HCC 2998", "assay": "Growth inhibition of human HCC2998 cells assessed as cell growth at 0.1 uM incubated for 48 hrs by sulforhodamine B assay relative to control", "format": "functional", "settings": "HCC 2998, 48 h, read-out: Activity"}, "[10]": {"system": "NCI-H23", "assay": "Growth inhibition of human NCI-H23 cells assessed as cell growth at 100 uM incubated for 48 hrs by sulforhodamine B assay relative to control", "format": "functional", "settings": "NCI-H23, 48 h, read-out: Activity"}, "[11]": {"system": "A549", "assay": "Growth inhibition of human A549/ATCC cells assessed as cell growth at 0.01 uM incubated for 48 hrs by sulforhodamine B assay relative to control", "format": "functional", "settings": "A549, 48 h, read-out: Activity"}, "[12]": {"system": "SR", "assay": "Growth inhibition of human SR cells assessed as cell growth at 1 uM incubated for 48 hrs by sulforhodamine B assay relative to control", "format": "functional", "settings": "read-out: Activity"}, "[13]": {"system": "NCI-H23", "assay": "Growth inhibition of human NCI-H23 cells assessed as cell growth at 0.01 uM incubated for 48 hrs by sulforhodamine B assay relative to control", "format": "functional", "settings": "NCI-H23, 48 h, read-out: Activity"}, "[14]": {"system": "MDA-MB-468", "assay": "Growth inhibition of human MDA-MB-468 cells assessed as cell growth at 0.1 uM incubated for 48 hrs by sulforhodamine B assay relative to control", "format": "functional", "settings": "MDA-MB-468, 48 h, read-out: Activity"}, "[15]": {"system": "SNB-75", "assay": "Growth inhibition of human SNB75 cells incubated for 48 hrs by sulforhodamine B assay", "format": "functional, cell-based", "settings": "SNB-75, 48 h"}, "[16]": {"system": "CAKI-1", "assay": "Growth inhibition of human Caki1 cells assessed as cell growth at 100 uM incubated for 48 hrs by sulforhodamine B assay relative to control", "format": "functional", "settings": "CAKI-1, 48 h, read-out: Activity"}, "[17]": {"system": "SR", "assay": "Growth inhibition of human SR cells assessed as cell growth at 0.1 uM incubated for 48 hrs by sulforhodamine B assay relative to control", "format": "functional", "settings": "read-out: Activity"}, "[18]": {"system": "SNB-19", "assay": "Growth inhibition of human SNB19 cells assessed as cell growth at 1 uM incubated for 48 hrs by sulforhodamine B assay relative to control", "format": "functional", "settings": "SNB-19, 48 h, read-out: Activity"}, "[19]": {"system": "CAKI-1", "assay": "Growth inhibition of human Caki1 cells assessed as cell growth at 0.01 uM incubated for 48 hrs by sulforhodamine B assay relative to control", "format": "functional", "settings": "CAKI-1, 48 h, read-out: Activity"}, "[20]": {"system": "SK-MEL-28", "assay": "Growth inhibition of human SK-MEL-28 cells assessed as cell growth at 0.1 uM incubated for 48 hrs by sulforhodamine B assay relative to control", "format": "functional", "settings": "SK-MEL-28, 48 h, read-out: Activity"}, "[21]": {"system": "UO-31", "assay": "Growth inhibition of human UO31 cells assessed as cell growth at 1 uM incubated for 48 hrs by sulforhodamine B assay relative to control", "format": "functional", "settings": "UO-31, 48 h, read-out: Activity"}, "[22]": {"system": "MCF7", "assay": "Growth inhibition of human MCF7 cells incubated for 48 hrs by sulforhodamine B assay", "format": "functional, cell-based", "settings": "MCF7, 48 h"}, "[23]": {"system": "NCI-H322M", "assay": "Growth inhibition of human NCI-H322M cells assessed as cell growth at 0.01 uM incubated for 48 hrs by sulforhodamine B assay relative to control", "format": "functional", "settings": "read-out: Activity"}, "[24]": {"system": "MDA-MB-231", "assay": "Growth inhibition of human MDA-MB-231 cells assessed as cell growth at 0.01 uM incubated for 48 hrs by sulforhodamine B assay relative to control", "format": "functional", "settings": "MDA-MB-231, 48 h, read-out: Activity"}, "[25]": {"system": "NCI-H322M", "assay": "Growth inhibition of human NCI-H322M cells assessed as cell growth at 0.1 uM incubated for 48 hrs by sulforhodamine B assay relative to control", "format": "functional", "settings": "read-out: Activity"}, "[26]": {"system": "SF-295", "assay": "Growth inhibition of human SF295 cells assessed as cell growth at 0.01 uM incubated for 48 hrs by sulforhodamine B assay relative to control", "format": "functional", "settings": "SF-295, 48 h, read-out: Activity"}, "[27]": {"system": "SW-620", "assay": "Growth inhibition of human SW620 cells incubated for 48 hrs by sulforhodamine B assay", "format": "functional, cell-based", "settings": "SW-620, 48 h"}, "[28]": {"system": "SK-OV-3", "assay": "Growth inhibition of human SKOV3 cells assessed as cell growth at 0.01 uM incubated for 48 hrs by sulforhodamine B assay relative to control", "format": "functional", "settings": "SK-OV-3, 48 h, read-out: Activity"}, "[29]": {"settings": "read-out: LC50 (the source's name)"}, "[30]": {"settings": "read-out: pLC50 (the source's name) (converted)"}}, "data": [{"compound": "O=C(Nc1cccc(-n2cc(-c3ccncc3)c(-c3cc(O)cc(Cl)c3)n2)c1)c1cc(C(F)(F)F)cc(C(F)(F)F)c1", "values": [{"measurement": "growth at 0.1 µM", "setting": "[1]", "value": 97, "unit": "%"}, {"measurement": "growth at 0.01 µM", "setting": "[2]", "value": 58, "unit": "%"}, {"measurement": "growth at 100 µM", "setting": "[3]", "value": -50, "unit": "%"}, {"measurement": "growth at 0.01 µM", "setting": "[4]", "value": 92, "unit": "%"}, {"measurement": "growth at 100 µM", "setting": "[5]", "value": -7, "unit": "%"}, {"measurement": "growth at 1 µM", "setting": "[6]", "value": 56, "unit": "%"}, {"measurement": "growth at 0.01 µM", "setting": "[7]", "value": 96, "unit": "%"}, {"measurement": "GI50", "setting": "[8]; read-out: GI50", "value": 7.96, "unit": "µM"}, {"measurement": "CC50", "setting": "[8]; [29]", "value": "> 100", "unit": "µM"}, {"measurement": "TGI", "setting": "[8]; read-out: TGI", "value": "> 100", "unit": "µM"}, {"measurement": "GI50", "setting": "[8]; read-out: pGI50 (converted)", "value": 7.94, "unit": "µM"}, {"measurement": "CC50", "setting": "[8]; [30]", "value": "> 100", "unit": "µM"}, {"measurement": "TGI", "setting": "[8]; read-out: pTGI (converted)", "value": "> 100", "unit": "µM"}, {"measurement": "growth at 0.1 µM", "setting": "[9]", "value": 95, "unit": "%"}, {"measurement": "growth at 100 µM", "setting": "[10]", "value": -10, "unit": "%"}, {"measurement": "growth at 0.01 µM", "setting": "[11]", "value": 95, "unit": "%"}, {"measurement": "growth at 1 µM", "setting": "[12]", "value": 71, "unit": "%"}, {"measurement": "growth at 0.01 µM", "setting": "[13]", "value": 94, "unit": "%"}, {"measurement": "growth at 0.1 µM", "setting": "[14]", "value": 95, "unit": "%"}, {"measurement": "GI50", "setting": "[15]; read-out: GI50", "value": 2.3, "unit": "µM"}, {"measurement": "CC50", "setting": "[15]; [29]", "value": "> 100", "unit": "µM"}, {"measurement": "TGI", "setting": "[15]; read-out: TGI", "value": "> 100", "unit": "µM"}, {"measurement": "GI50", "setting": "[15]; read-out: pGI50 (converted)", "value": 2.82, "unit": "µM"}, {"measurement": "CC50", "setting": "[15]; [30]", "value": "> 100", "unit": "µM"}, {"measurement": "TGI", "setting": "[15]; read-out: pTGI (converted)", "value": "> 100", "unit": "µM"}, {"measurement": "growth at 100 µM", "setting": "[16]", "value": 7, "unit": "%"}, {"measurement": "growth at 0.1 µM", "setting": "[17]", "value": 94, "unit": "%"}, {"measurement": "growth at 1 µM", "setting": "[18]", "value": 105, "unit": "%"}, {"measurement": "growth at 0.01 µM", "setting": "[19]", "value": 97, "unit": "%"}, {"measurement": "growth at 0.1 µM", "setting": "[20]", "value": 103, "unit": "%"}, {"measurement": "growth at 1 µM", "setting": "[21]", "value": 71, "unit": "%"}, {"measurement": "GI50", "setting": "[22]; read-out: GI50", "value": 2.55, "unit": "µM"}, {"measurement": "LC50", "setting": "[22]; read-out: LC50", "value": "> 100", "unit": "µM"}, {"measurement": "TGI", "setting": "[22]; read-out: TGI", "value": "> 100", "unit": "µM"}, {"measurement": "GI50", "setting": "[22]; read-out: pGI50 (converted)", "value": 2.88, "unit": "µM"}, {"measurement": "LC50", "setting": "[22]; read-out: pLC50 (converted)", "value": "> 100", "unit": "µM"}, {"measurement": "TGI", "setting": "[22]; read-out: pTGI (converted)", "value": "> 100", "unit": "µM"}, {"measurement": "growth at 0.01 µM", "setting": "[23]", "value": 103, "unit": "%"}, {"measurement": "growth at 0.01 µM", "setting": "[24]", "value": 98, "unit": "%"}, {"measurement": "growth at 0.1 µM", "setting": "[25]", "value": 90, "unit": "%"}, {"measurement": "growth at 0.01 µM", "setting": "[26]", "value": 92, "unit": "%"}, {"measurement": "GI50", "setting": "[27]; read-out: GI50", "value": 4.48, "unit": "µM"}, {"measurement": "LC50", "setting": "[27]; read-out: LC50", "value": "> 100", "unit": "µM"}, {"measurement": "TGI", "setting": "[27]; read-out: TGI", "value": "> 100", "unit": "µM"}, {"measurement": "GI50", "setting": "[27]; read-out: pGI50 (converted)", "value": 4.47, "unit": "µM"}, {"measurement": "LC50", "setting": "[27]; read-out: pLC50 (converted)", "value": "> 100", "unit": "µM"}, {"measurement": "TGI", "setting": "[27]; read-out: pTGI (converted)", "value": "> 100", "unit": "µM"}, {"measurement": "growth at 0.01 µM", "setting": "[28]", "value": 102, "unit": "%"}]}]}
